Assay results published in patent US12428406B2 (PMV Pharmaceuticals, Inc., priority 2019, dated 2025).

Each compound was assayed against T1, p53 Y220C (Homo sapiens, UniProt P04637, Y220C) (assay: In vitro DNA binding activity assay (HTRF / TR-FRET): stabilization of p53 Y220C and increase of its DNA binding activity). Settings: recombinant His-tagged p53 Y220C DNA binding domain (aa 94-312), biotin-labeled consensus DNA, incubated at 27° C. or 29° C. for 60 min.
T1 construct: The recombinant protein was a truncation mutant containing only amino acids 94-312 of p53; made in house; host or cells: E. coli
Type: biochemical
Procedure, shortened: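 Test compounds, diluted 3-fold in DMSO from 4.5 mM stocks, were incubated with bacterially expressed His-tagged p53 Y220C at room temperature for 15 min, and after a further step for 20 min. DNA binding was detected by time-resolved FRET between APC and europium labels. SC150 marks the concentration increasing binding by 50%.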

T1 sequence (P04637 94-312, change not shown): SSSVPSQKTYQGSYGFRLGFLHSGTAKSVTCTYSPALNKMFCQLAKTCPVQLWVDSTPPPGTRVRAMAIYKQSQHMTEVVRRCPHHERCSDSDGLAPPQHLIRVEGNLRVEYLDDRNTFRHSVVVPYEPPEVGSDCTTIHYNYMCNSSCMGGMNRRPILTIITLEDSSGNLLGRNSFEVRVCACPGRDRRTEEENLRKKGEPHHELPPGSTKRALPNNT

SC150 (concentration of the compound required to increase the DNA binding activity by 50%), + (+ = 0 μM ≤ SC150 < 0.05 μM):
CNC(=O)c1ccc(NCC#Cc2cc3c(NC4CCN(CC(C)O)CC4)cccc3n2CC(F)(F)F)c(OC)c1 (centres unmarked) [Compound 596A, 4-{[3-(4-{[1-(2-hydroxypropyl)piperidin-4-yl]amino}-1-(2,2,2-trifluoroethyl)-1H-indol-2-yl)prop-2-yn-1-yl]amino}-3-methoxy-N-methylbenzamide]
COc1cc(S(N)(=O)=O)ccc1NCC#Cc1cc2c(NC3CCN(CC(C)OC(=O)C(C)C)CC3)cccc2n1CC(F)(F)F (centres unmarked) [Compound 598A, 1-{4-[(2-{3-[(2-methoxy-4-sulfamoylphenyl)amino]prop-1-yn-1-yl}-1-(2,2,2-trifluoroethyl)-1H-indol-4-yl)amino]piperidin-1-yl}propan-2-yl 2-methylpropanoate]
COc1cc(S(N)(=O)=O)ccc1NCC#Cc1cc2c(NC3CCN(CC(C)OC(C)=O)CC3)cccc2n1CC(F)(F)F (centres unmarked) [Compound 599A, 1-{4-[(2-{3-[(2-methoxy-4-sulfamoylphenyl)amino]prop-1-yn-1-yl}-1-(2,2,2-trifluoroethyl)-1H-indol-4-yl)amino]piperidin-1-yl}propan-2-yl acetate]
COc1cc(S(N)(=O)=O)ccc1NCC#Cc1cc2c(NC3CCN(CCOC(=O)C(C)C)CC3)cccc2n1CC(F)(F)F [Compound 600A, 2-{4-[(2-{3-[(2-methoxy-4-sulfamoylphenyl)amino]prop-1-yn-1-yl}-1-(2,2,2-trifluoroethyl)-1H-indol-4-yl)amino]piperidin-1-yl}EtOAc]
CNC(=O)c1ccc(NCC#Cc2cc3c(NC4CCN(CC(O)COC)CC4)cccc3n2CC(F)(F)F)c(OC)c1 (centres unmarked) [Compound 601A, 4-{[3-(4-{[1-(2-hydroxy-3-methoxypropyl)piperidin-4-yl]amino}-1-(2,2,2-trifluoroethyl)-1H-indol-2-yl)prop-2-yn-1-yl]amino}-3-methoxy-N-methylbenzamide]
CCC(=O)OC(COC)CN1CCC(Nc2cccc3c2cc(C#CCNc2ccc(S(C)(=O)=O)cc2OC)n3CC(F)(F)F)CC1 (centres unmarked) [Compound 602A, 1-{4-[(2-{3-[(4-methanesulfonyl-2-methoxyphenyl)amino]prop-1-yn-1-yl}-1-(2,2,2-trifluoroethyl)-1H-indol-4-yl)amino]piperidin-1-yl}-3-methoxypropan-2-yl propanoate]
COCC(CN1CCC(Nc2cccc3c2cc(C#CCNc2ccc(S(C)(=O)=O)cc2OC)n3CC(F)(F)F)CC1)OC(=O)C(C)C (centres unmarked) [Compound 603A, 1-{4-[(2-{3-[(4-methanesulfonyl-2-methoxyphenyl)amino]prop-1-yn-1-yl}-1-(2,2,2-trifluoroethyl)-1H-indol-4-yl)amino]piperidin-1-yl}-3-methoxypropan-2-yl 2-methylpropanoate]
COCC(CN1CCC(Nc2cccc3c2cc(C#CCNc2ccc(S(N)(=O)=O)cc2OC)n3CC(F)(F)F)CC1)OC(=O)C(C)C (centres unmarked) [Compound 604A, 1-methoxy-3-{4-[(2-{3-[(2-methoxy-4-sulfamoylphenyl)amino]prop-1-yn-1-yl}-1-(2,2,2-trifluoroethyl)-1H-indol-4-yl)amino]piperidin-1-yl}propan-2-yl 2-methylpropanoate]
